Measurements reported in patent publication US20020035097A1, “Method of preventing and treating chemotherapy-induced alopecia” (priority 1991, published 2002).

Key:
Type in all cases: in vivo, rat
ARA-C-induced alopecia = ARA-C-induced alopecia in young rats
Experimental: Sprague Dawley rats were purchased from Charles River Laboratories, Wilmington, Mass. Cytosar-U (ARA-C) was from the Upjohn Company, Kalamazoo, Mich. Receptor grade EGF from mouse submaxillary glands, human recombinant EGF, dimethyl sulfoxide (DMSO) and Vitamin D3 were purchased from Sigma Chemical Co., St. Louis, Mo. aFGF was purchased from AMGEN Corp., Thousand Oaks, Calif.
All rats from each experiment were treated with ARA-C 50 mg/kg intraperitoneally (i.p.) daily for 7 days. For subcutaneous (s.c.) injections, EGF and FGF were prepared in PBS 1% BSA. Alopecia was always recorded on day 12 of experiment, and scored as previously described (Hussein et al, Science, 249:1564-1566, 1990; Jimenez et al, FASEB J., 1991).
For topical treatment, murine EGF was prepared as follows: One vial of EGF (100 μg) was dissolved in 0.2 ml of PBS 1% BSA and 0.12 ml of this solution was added to 0.48 of DMSO. Three hours prior to ARA-C injection, 0.1 ml of the EGF-DMSO mixture was applied to each rat over a 1 cm^2 area between the shoulders using a rubber tip applicator. Rats were then kept individually separated for a period of three hours, following which the treated area was carefully washed with soap and water and dried. Treatment was continued for 7 days. Control animals were similarly treated using DMSO without EGF.
Two separate experiments were conducted to test the ability of murine EGF to protect from ARA-C-induced alopecia. In Experiment I, twenty-two 7-day old rats were randomized in two groups of eleven rats each. In addition to ARA-C, Group I received 2 μg of mouse EGF s.c. in the back between the two hind legs 3 hours prior to ARA-C injections daily for 7 days. Group II, received buffer solution similarly and served as control. Ten of eleven rats in Group II developed virtually total body alopecia and one rat developed more than 50% hair loss. In contrast, in Group I, 5 rats had no detectable hair loss and 6 rats had mild hair loss (Table I, Experiment I (FIG. 1)). In Experiment II, twelve 7-day old rats were randomized in two groups of 6 rats each. In addition to ARA-C, Group I received mouse EGF 1 μg s.c. daily for 7 days. Group II received buffer s.c. All 6 rats in Group II developed moderately severe to severe alopecia, whereas in Group I, one rat had no detectable hair loss and 5 rats developed only minimal hair loss (Table I, Experiment II).
For the next experiment, rHu-EGF was used. Twelve 7-day old rats were randomized in two groups of six rats each. In addition to ARA-C, Group I received rHu-EGF 2 μg s.c. in the flank area daily for 7 days. Group II received buffer s.c. All 6 rats in Group II developed total body alopecia, whereas in Group I none of the rats had total body alopecia, one rat had no detectable hair loss, four rats had mild alopecia and one rat had moderate alopecia (Table I, Experiment III, (FIG. 2)).
In the next experiment, twelve 7-day old rats were randomized in two groups of six rats each. Group I, in addition to ARA-C, received murine-EGF 10 μg in DMSO daily×7 days rubbed topically with a cotton tip applicator between the shoulder blades over an area of 1 cm^2. Group II received control solution topically. In Group II, all six rats developed complete body alopecia.
Fourteen 7-day old rats were randomized in two groups. All rats received ARA-C 50 mg/kg/day for seven days. In addition, Group I received aFGF 2 μg s.c. on back of head daily for seven days. Group II received buffer injections and served as controls. Alopecia was recorded on day 12 of experiment. All rats in Group II developed complete body alopecia.

[1] = tested on: Cytoxan/Adriamycin-induced alopecia; experiment: Cytoxan/Adriamycin combination-induced alopecia in young rats
Experimental: Eight 4-day old Sprague Dawley rats were randomized in two groups of 4 rats each. Group I, received EGF […] s.c. on the head daily for 7 days. Group II received buffer injections and served as controls. One day after stopping EGF or buffer injections all rats received Cytoxan 25 mg/kg i.p.×1 day and Adriamycin 2.5 mg/kg i.p.×3 days. […] (FIG. 5).
(§1) 1,25-Dihydroxyvitamin D3 was dissolved in absolute ethanol and applied topically with an applicator. Control animals were similarly treated with the same amount of ethanol. Animals were then kept individually separated for a period of three hours following which the treated area was carefully washed with soap and water and dried. Treatment was given daily beginning on day 5 after birth and ending on day 10.
All chemotherapies were given I.P. and started at 11 days of age. CTX, 35 mg/kg, was given for one day only. VP-16, 1.5 mg/kg, was given for three days. For CTX and ADM combination, CTX, 25 mg/kg was given for one day and ADM, 2.5 mg/kg, for three days. […] Alopecia was recorded on the tenth day from beginning chemotherapy.
A total of 4 experiments were carried out. In the first experiment, protection from Cytoxan-induced alopecia was examined. The experimental group was pretreated with 0.2 μg of 1,25-dihydroxyvitamin D3 in 0.15 ml of absolute ethanol applied topically over the head and neck and the control group received 0.15 ml of alcohol. […] The second experiment was carried out under similar conditions to examine protection from VP-16-induced alopecia. […] The third experiment was designed to examine protection from alopecia induced by Cytoxan-Adriamycin combination. There were 11 rats in each group. […] In the fourth experiment, protection from VP-16-induced alopecia was similarly examined except that the dose of 1,25-dihydroxyvitamin D3 was reduced to 0.1 μg in 0.1 ml absolute ethanol applied topically over the head area only.

VP-16-induced alopecia = experiment: VP-16 (Etoposide)-induced alopecia in young rats
Experimental: Twelve 7 day old rats were randomized in two groups. Group I was treated daily with buffer 0.1 ml s.c. for four days. The second Group was treated daily with Vitamin D3 50 μg s.c. over head for four days. After stopping the buffer or Vitamin D3 treatment, all rats received 1.5 mg/kg i.p. of VP-16 (Etoposide) daily for three days.
as §1
All chemotherapies were given I.P. and started at 11 days of age. CTX, 35 mg/kg, was given for one day only. VP-16, 1.5 mg/kg, was given for three days. For CTX and ADM combination, CTX, 25 mg/kg was given for one day and ADM, 2.5 mg/kg, for three days. At these doses neither CTX nor ADM alone will produce alopecia. Alopecia was recorded on the tenth day from beginning chemotherapy.
A total of 4 experiments were carried out. In the first experiment, protection from Cytoxan-induced alopecia was examined. The experimental group was pretreated with 0.2 μg of 1,25-dihydroxyvitamin D3 in 0.15 ml of absolute ethanol applied topically over the head and neck and the control group received 0.15 ml of alcohol. All 10 rats in the control group became totally alopecic. […] The second experiment was carried out under similar conditions to examine protection from VP-16-induced alopecia. All 10 rats in the control group developed total body alopecia. […] The third experiment was designed to examine protection from alopecia induced by Cytoxan-Adriamycin combination. There were 11 rats in each group. Six rats in the control group developed alopecia over the head and neck and 5 rats developed total body alopecia. […] In the fourth experiment, protection from VP-16-induced alopecia was similarly examined except that the dose of 1,25-dihydroxyvitamin D3 was reduced to 0.1 μg in 0.1 ml absolute ethanol applied topically over the head area only. All 10 rats in the control group became completely alopecic.
RO 23-7553 (1,25 dihydroxy-16-ene-23-yne-cholecalciferol) was dissolved in absolute ethanol and applied topically with an applicator. Control animals were similarly treated with the same amount of ethanol. Animals were then kept individually separated for a period of three hours following which the treated area was carefully washed with soap and water and dried. Treatment was given daily beginning on day 9 after birth and ending on day 14.
On day 15 all animals received VP-16, 1.5 mg/kg i.p., for three days. Alopecia was recorded on day 25.
Thirteen rats were randomized in two groups. Experimental group, 7 rats; control group, 6 rats. The experimental group was pretreated with 1 μg of RO 23-7553 in 0.2 ml absolute ethanol applied topically over the neck and back and the control group received 0.2 ml of absolute ethanol. All six rats in the control group became totally alopecic over the neck and back.

Cytoxan-induced alopecia = Cytoxan-induced alopecia in young rats; conditions: 50 μg daily i.p. or s.c. for 4 days prior to chemotherapy; Cytoxan 32.5 mg/kg single injection; 7 experiments, 89 animals
[2] = Experiment I, 2 μg s.c. daily × 7 days, 3 hours prior to ARA-C 50 mg/kg i.p. × 7 days, 11 rats, day 12
[3] = Experiment II, 1 μg s.c. daily × 7 days with ARA-C 50 mg/kg i.p. × 7 days, 6 rats, day 12
[4] = 2μ s.c. on the head daily for 7 days, then Cytoxan 25 mg/kg i.p. × 1 day and Adriamycin 2.5 mg/kg i.p. × 3 days, 4 rats
[5] = Experiment III, 2 μg s.c. in flank daily × 7 days with ARA-C 50 mg/kg i.p. × 7 days, 6 rats, day 12
[6] = Experiment III, 2 μg s.c. in flank daily × 7 days with ARA-C 50 mg/kg i.p. × 7 days, 6 rats, day 12, listed as rHu-ECF

C=C1CC[C@H](O)C/C1=C/C=C1\CCC[C@]2(C)[C@@H]([C@H](C)CCCC(C)C)CC[C@@H]12 [Vitamin D3]
Protection from alopecia (ARA-C-induced alopecia; 50 μg daily i.p. or s.c. for 4 days prior to chemotherapy, ARA-C 50 mg/kg i.p. daily for 7 days, 1 experiment, 8 animals): excellent protection and Yes* | Protection from alopecia ([1]; 50 μg daily i.p. or s.c. for 4 days prior to chemotherapy, Adriamycin 2.5 mg/kg i.p. daily for 3 days plus Cytoxan 25 mg/kg single injection, 6 experiments, 77 animals): excellent protection and Yes* | Protection from alopecia (VP-16-induced alopecia; 50 μg daily i.p. or s.c. for 4 days prior to chemotherapy, VP-16 1.5 mg/kg i.p. daily for 3 days, 2 experiments, 22 animals): excellent protection and Yes* | Protection from VP-16-induced alopecia (VP-16-induced alopecia; 50 μg s.c. over head daily for four days, then VP-16 1.5 mg/kg i.p. daily for three days): protected | Protection from alopecia (Cytoxan-induced alopecia): excellent protection and Yes*

Murine EGF: Receptor grade EGF from mouse submaxillary glands (Sigma) (NSYPGCPSSYDGYCLNGGVCMHIESLDSYTCNCVIGYSGDRCQTRDLRWWELR; Epidermal growth factor; UniProt P01132 977-1029, looked up)
Alopecia after topical treatment (ARA-C-induced alopecia; 10 μg in DMSO daily × 7 days topically between shoulder blades over 1 cm^2, ARA-C 50 mg/kg × 7 days, 6 rats): all rats developed complete body alopecia except where the EGF was applied topically | Number of rats with alopecia 0 (no detectable alopecia) (ARA-C-induced alopecia; [2]): 5 | Number of rats with alopecia 1+ (mild, less than 50% hair loss) (ARA-C-induced alopecia; [2]): 6 | Number of rats with alopecia 2+ (moderately severe, more than 50% hair loss) (ARA-C-induced alopecia; [2]): 0 | Number of rats with alopecia 3+ (total or virtually total, >90% hair loss) (ARA-C-induced alopecia; [2]): 0 | Number of rats with alopecia 0 (no detectable alopecia) (ARA-C-induced alopecia; [3]): 1 | Number of rats with alopecia 1+ (mild, less than 50% hair loss) (ARA-C-induced alopecia; [3]): 5 | Number of rats with alopecia 2+ (moderately severe, more than 50% hair loss) (ARA-C-induced alopecia; [3]): 0 | Number of rats with alopecia 3+ (total or virtually total, >90% hair loss) (ARA-C-induced alopecia; [3]): 0 | Number of rats with alopecia 0 (no detectable alopecia) (ARA-C-induced alopecia; Experiment II, 1 μg s.c. daily × 7 days with ARA-C 50 mg/kg i.p. × 7 days, 6 rats, day 12, listed as mouse EGF): one | Number of rats with mild alopecia over head and neck [1, 4]: one | Number of rats with minimal alopecia over head and neck [1, 4]: one | Number of rats with no detectable alopecia over head and neck [1, 4]: two

rHu-EGF: human recombinant EGF (Sigma)
Number of rats with alopecia 0 (no detectable alopecia) (ARA-C-induced alopecia; [5]): one | Number of rats with alopecia 1+ (mild, less than 50% hair loss) (ARA-C-induced alopecia; [5]): four | Number of rats with alopecia 2+ (moderately severe, more than 50% hair loss) (ARA-C-induced alopecia; [5]): one | Number of rats with alopecia 3+ (total or virtually total, >90% hair loss) (ARA-C-induced alopecia; [5]): none | Number of rats with alopecia 0 (no detectable alopecia) (ARA-C-induced alopecia; [6]): 1 | Number of rats with alopecia 1+ (mild, less than 50% hair loss) (ARA-C-induced alopecia; [6]): 4 | Number of rats with alopecia 2+ (moderately severe, more than 50% hair loss) (ARA-C-induced alopecia; [6]): 1 | Number of rats with alopecia 3+ (total or virtually total, >90% hair loss) (ARA-C-induced alopecia; [6]): 0

aFGF: aFGF, a fibroblast growth factor, purchased from AMGEN Corp.
Protection from ARA-C-induced alopecia (ARA-C-induced alopecia; 2 μg s.c. on back of head daily for seven days, ARA-C 50 mg/kg/day for seven days, day 12): protected locally at the site of injection

C=C1/C(=C\C=C2/CCC[C@]3(C)C([C@H](C)CC#CC(C)(C)O)=CC[C@@H]23)C[C@@H](O)C[C@@H]1O [RO 23-7553, 1,25 dihydroxy-16-ene-23-yne-cholecalciferol]
Protection from VP-16-induced alopecia (VP-16-induced alopecia; 1 μg in 0.2 ml absolute ethanol topically over neck and back, day 9 to 14 after birth, VP-16 1.5 mg/kg i.p. for three days from day 15, recorded day 25, 7 rats): all animals in the experimental group were protected
